Where two headings read alike, the source gives them in different places.
Experiments:
Assay in all cases: Test A pre-/postemergence plant response
Assay type in all cases: in vivo
[1] = test system: velvetleaf (Abutilon theophrasti); conditions: for pest or weed control at 125 g/ha / pest or weed control at 500 g/ha: Abutilon theophrasti, 240 h
Method in brief: (§1)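 Injury was scored visually after roughly ten days against untreated controls, 0 = no effect, 100 = complete control. Test chemicals in a surfactant-containing non-phytotoxic solvent were sprayed either onto soil preemergence or onto one- to two-leaf, 2–10 cm plants postemergence.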

[2] = test system: corn (Zea mays); conditions: for plant injury at 125 g/ha / Corn plant response rating (crop injury, 0 = no effect, 100 = complete kill) at 500 g/ha / Corn plant response rating (crop injury, 0 = no effect, 100 = complete kill) at 125 g/ha: Zea mays, 240 h; for plant injury at 125 g/ha: read-out: Corn plant response rating
Method in brief: as §1

[3] = test system: barnyardgrass (Echinochloa crus-galli); conditions: for pest or weed control at 125 g/ha / pest or weed control at 500 g/ha: Echinochloa crus-galli, 240 h
Method in brief: as §1

[4] = test system: large crabgrass (Digitaria sanguinalis); conditions: for pest or weed control at 125 g/ha / pest or weed control at 500 g/ha: Digitaria sanguinalis, 240 h
Method in brief: as §1

[5] = test system: giant foxtail (Setaria faberii); conditions: for pest or weed control at 125 g/ha / pest or weed control at 500 g/ha: Setaria faberi, 240 h
Method in brief: as §1

[6] = test system: wheat (Triticum aestivum); conditions: for plant injury at 125 g/ha / plant injury at 500 g/ha: Triticum aestivum, 240 h
Method in brief: as §1

[7] = Postemergence, 125 g ai/ha, visual injury, 0 to 100 scale (0 no effect, 100 complete control), approx. ten days
[8] = Postemergence, 500 g ai/ha, 0 to 100 scale, 0 = no effect, 100 = complete control, approx. ten days
[9] = Preemergence, 125 g ai/ha, 0 to 100 scale, 0 = no effect, 100 = complete control
[10] = Preemergence, 500 g ai/ha, visual injury, 0 to 100 scale (0 no effect, 100 complete control), approx. ten days
[11] = post-emergence, Postemergence, 125 g ai/ha, visual injury, 0 to 100 scale (0 no effect, 100 complete control), approx. ten days, read-out: Velvetleaf plant response rating
[12] = post-emergence, Postemergence, 500 g ai/ha, 0 to 100 scale, 0 = no effect, 100 = complete control, approx. ten days, read-out: Plant response rating, Velvetleaf
[13] = pre-emergence, Preemergence, 125 g ai/ha, 0 to 100 scale, 0 = no effect, 100 = complete control, read-out: Plant response rating, Velvetleaf
[14] = pre-emergence, Preemergence, 500 g ai/ha, visual injury, 0 to 100 scale (0 no effect, 100 complete control), approx. ten days, read-out: Plant response rating, Velvetleaf
[15] = post-emergence, Postemergence, 125 g ai/ha, visual injury, 0 to 100 scale (0 no effect, 100 complete control), approx. ten days
[16] = post-emergence, Postemergence, 500 g ai/ha, 0 to 100 scale, 0 = no effect, 100 = complete control, approx. ten days
[17] = pre-emergence, Preemergence, 125 g ai/ha, 0 to 100 scale, 0 = no effect, 100 = complete control
[18] = pre-emergence, Preemergence, 500 g ai/ha, visual injury, 0 to 100 scale (0 no effect, 100 complete control), approx. ten days
[19] = post-emergence, Postemergence, 125 g ai/ha, visual injury, 0 to 100 scale (0 no effect, 100 complete control), approx. ten days, read-out: Barnyardgrass plant response rating
[20] = post-emergence, Postemergence, 500 g ai/ha, 0 to 100 scale, 0 = no effect, 100 = complete control, approx. ten days, read-out: Plant response rating, Barnyardgrass
[21] = pre-emergence, Preemergence, 125 g ai/ha, 0 to 100 scale, 0 = no effect, 100 = complete control, read-out: Plant response rating, Barnyardgrass
[22] = pre-emergence, Preemergence, 500 g ai/ha, visual injury, 0 to 100 scale (0 no effect, 100 complete control), approx. ten days, read-out: Plant response rating, Barnyardgrass
[23] = post-emergence, Postemergence, 125 g ai/ha, visual injury, 0 to 100 scale (0 no effect, 100 complete control), approx. ten days, read-out: Crabgrass, Large plant response rating
[24] = post-emergence, Postemergence, 500 g ai/ha, 0 to 100 scale, 0 = no effect, 100 = complete control, approx. ten days, read-out: Plant response rating, Crabgrass, Large
[25] = pre-emergence, Preemergence, 125 g ai/ha, 0 to 100 scale, 0 = no effect, 100 = complete control, read-out: Plant response rating, Crabgrass, Large
[26] = pre-emergence, Preemergence, 500 g ai/ha, visual injury, 0 to 100 scale (0 no effect, 100 complete control), approx. ten days, read-out: Plant response rating, Crabgrass, Large
[27] = post-emergence, Postemergence, 125 g ai/ha, visual injury, 0 to 100 scale (0 no effect, 100 complete control), approx. ten days, read-out: Foxtail, Giant plant response rating
[28] = post-emergence, Postemergence, 500 g ai/ha, 0 to 100 scale, 0 = no effect, 100 = complete control, approx. ten days, read-out: Plant response rating, Foxtail, Giant
[29] = pre-emergence, Preemergence, 125 g ai/ha, 0 to 100 scale, 0 = no effect, 100 = complete control, read-out: Plant response rating, Foxtail, Giant
[30] = pre-emergence, Preemergence, 500 g ai/ha, visual injury, 0 to 100 scale (0 no effect, 100 complete control), approx. ten days, read-out: Plant response rating, Foxtail, Giant
[31] = post-emergence, Postemergence, 125 g ai/ha, visual injury, 0 to 100 scale (0 no effect, 100 complete control), approx. ten days, read-out: Wheat plant response rating
[32] = post-emergence, Postemergence, 500 g ai/ha, 0 to 100 scale, 0 = no effect, 100 = complete control, approx. ten days, read-out: Plant response rating, Wheat
[33] = pre-emergence, Preemergence, 125 g ai/ha, 0 to 100 scale, 0 = no effect, 100 = complete control, read-out: Plant response rating, Wheat
[34] = pre-emergence, Preemergence, 500 g ai/ha, visual injury, 0 to 100 scale (0 no effect, 100 complete control), approx. ten days, read-out: Plant response rating, Wheat

COc1cccc(-n2c(-c3ccccc3)ncc(C(=O)C3=C(O)CCCC3=O)c2=O)c1 [Compound 19]
30: Plant response rating, Foxtail, Giant [5, 10]
100: Velvetleaf plant response rating [1, 7] | Plant response rating, Velvetleaf [1, 8] | Plant response rating, Velvetleaf [1, 10]
20: Plant response rating, Crabgrass, Large [4, 8] | Plant response rating, Crabgrass, Large [4, 9] | Foxtail, Giant plant response rating [5, 7]
70: Plant response rating, Barnyardgrass [3, 8]
90: Plant response rating, Barnyardgrass [3, 10]
0: Corn plant response rating [2, 7] | Plant response rating, Corn [2, 9] | Plant response rating, Corn [2, 10] | Barnyardgrass plant response rating [3, 7] | Crabgrass, Large plant response rating [4, 7] | Wheat plant response rating [6, 7] | Plant response rating, Wheat [6, 8] | Plant response rating, Wheat [6, 9] | Plant response rating, Wheat [6, 10]
50: Plant response rating, Velvetleaf [1, 9] | Plant response rating, Foxtail, Giant [5, 8]
10: Plant response rating, Corn [2, 8] | Plant response rating, Barnyardgrass [3, 9] | Plant response rating, Foxtail, Giant [5, 9]
80: Plant response rating, Crabgrass, Large [4, 10]

CCn1ncc(C(=O)c2cnc(-c3ccccc3)n(Cc3ccccc3)c2=O)c1O [Compound 20, 5-[(1-ethyl-5-hydroxy-1H-pyrazol-4-yl)carbonyl]-2-phenyl-3-(phenylmethyl)-4(3H)-pyrimidinone]
0%: pest or weed control at 125 g/ha [1, 13] | plant injury at 125 g/ha [2, 15] | Corn plant response rating (crop injury, 0 = no effect, 100 = complete kill) at 125 g/ha [2, 17] | Corn plant response rating (crop injury, 0 = no effect, 100 = complete kill) at 500 g/ha [2, 18] | pest or weed control at 125 g/ha [3, 19] | pest or weed control at 125 g/ha [3, 21] | pest or weed control at 125 g/ha [4, 23] | pest or weed control at 125 g/ha [4, 25] | pest or weed control at 125 g/ha [5, 27] | pest or weed control at 500 g/ha [5, 28] | pest or weed control at 125 g/ha [5, 29] | plant injury at 125 g/ha [6, 31] | plant injury at 500 g/ha [6, 32] | plant injury at 125 g/ha [6, 33] | plant injury at 500 g/ha [6, 34]
30%: pest or weed control at 500 g/ha [4, 26]
70%: pest or weed control at 500 g/ha [1, 12]
20%: pest or weed control at 125 g/ha [1, 11] | pest or weed control at 500 g/ha [3, 22] | pest or weed control at 500 g/ha [5, 30]
50%: pest or weed control at 500 g/ha [1, 14]
10%: Corn plant response rating (crop injury, 0 = no effect, 100 = complete kill) at 500 g/ha [2, 16] | pest or weed control at 500 g/ha [3, 20] | pest or weed control at 500 g/ha [4, 24]

CCn1ncc(C(=O)c2cnc(-c3ccccc3)n(Cc3ccccc3)c2=O)c1OS(=O)(=O)c1ccc(C)cc1 [Compound 21, 5-[[1-ethyl-5-[[(4-methylphenyl)sulfonyl]oxy]-1H-pyrazol-4-yl]carbonyl]-2-phenyl-3-(phenylmethyl)-4(3H)-pyrimidinone]
30%: pest or weed control at 125 g/ha [1, 11]
70%: pest or weed control at 500 g/ha [1, 12]
20%: pest or weed control at 500 g/ha [4, 26]
0%: pest or weed control at 125 g/ha [1, 13] | pest or weed control at 500 g/ha [1, 14] | plant injury at 125 g/ha [2, 15] | Corn plant response rating (crop injury, 0 = no effect, 100 = complete kill) at 500 g/ha [2, 16] | Corn plant response rating (crop injury, 0 = no effect, 100 = complete kill) at 125 g/ha [2, 17] | Corn plant response rating (crop injury, 0 = no effect, 100 = complete kill) at 500 g/ha [2, 18] | pest or weed control at 125 g/ha [3, 19] | pest or weed control at 125 g/ha [3, 21] | pest or weed control at 500 g/ha [3, 22] | pest or weed control at 125 g/ha [4, 23] | pest or weed control at 125 g/ha [4, 25] | pest or weed control at 125 g/ha [5, 27] | pest or weed control at 500 g/ha [5, 28] | pest or weed control at 125 g/ha [5, 29] | plant injury at 125 g/ha [6, 31] | plant injury at 500 g/ha [6, 32] | plant injury at 125 g/ha [6, 33] | plant injury at 500 g/ha [6, 34]
10%: pest or weed control at 500 g/ha [3, 20] | pest or weed control at 500 g/ha [4, 24] | pest or weed control at 500 g/ha [5, 30]

From patent publication US8952024B2, “Herbicidal pyrimidone derivatives” (E I du Pont de Nemours and Company, priority 2009, dated 2015)
